The values that follow come from patent US7271165B2, “Rifamycin analogs and uses thereof” (priority 2003, dated 2007).

Experiment [1] relates to S. aureus. Description: MIC assay, S. aureus. The class given is cell-based, Staphylococcus aureus.
Experiment [2] concerns S. pneumo. Description: MIC assay, S. pneumo. The class given is cell-based, Streptococcus pneumoniae.
In experiment [3] the test system is E. faecalis. Description: MIC assay, E. faecalis. Type of experiment: cell-based, Enterococcus faecalis.
The test system of experiment [4] is H. flu. The class given is cell-based, H. influenza. Particulars: H. flu.
Experiment [5] has as its system E coli. Description: MIC assay, E coli. Type of experiment: cell-based.

Each structure is given as a SMILES string. Converted amounts (≈) assume the structure as drawn. Bounds are passed on as bounds.

Regarding `COC1C=COC2(C)Oc3c(C)c(O)c4c(=O)c(c5oc6cc(N7CCC(NC(=O)SC)CC7)cc(O)c6nc-5c4c3C2=O)NC(=O)C(C)=CC=CC(C)C(O)C(C)C(O)C(C)C(OC(C)=O)C1C` (stereo not drawn) [Compound 45, 3′-hydroxy-5′-[4-S-methylthiocarbamyl-1-piperidinyl]benzoxazinorifamycin], in experiment [1], the “MIC (μg/mL) S. aureus” value was determined as 0.015 µg/mL (≈ 15.4 nM). Also, the “MIC (μg/mL) S. pneumo.” value in experiment [2] came out at 0.001 µg/mL (≈ 1.03 nM). For the same molecule, the “MIC (μg/mL) E. faecalis” value in experiment [3] is 4 µg/mL (≈ 4110 nM). Further, the “MIC (μg/mL) H. flu” value in experiment [4] is 0.5 µg/mL (≈ 514 nM). Moreover, the “MIC (μg/mL) E coli” value in experiment [5] stood at 8 µg/mL (≈ 8220 nM).

With `COC1C=COC2(C)Oc3c(C)c(O)c4c(=O)c(c5oc6cc(N7CC8CCCN(C(C)=O)C8C7)cc(O)c6nc-5c4c3C2=O)NC(=O)C(C)=CC=CC(C)C(O)C(C)C(O)C(C)C(O)C1C` [Compound 46, 25-O-deacetyl-3′-hydroxy-5′-[1-acetyl-(4aR,7aR)-octahydro-6H-pyrrolo[3,4-b]pyridin-6-yl]benzoxazinorifamycin], in experiment [1], the “MIC (μg/mL) S. aureus” value is 0.004 µg/mL (≈ 4.32 nM). For the same molecule, the “MIC (μg/mL) S. pneumo.” value in experiment [2] is 0.00006 µg/mL (≈ 0.0649 nM). The “MIC (μg/mL) E. faecalis” value in experiment [3] came out at 2 µg/mL (≈ 2160 nM). For the same molecule, the “MIC (μg/mL) H. flu” value in experiment [4] is 0.5 µg/mL (≈ 541 nM). In addition, the “MIC (μg/mL) E coli” value in experiment [5] was over 8 µg/mL.

Take `COC1C=COC2(C)Oc3c(C)c(O)c4c(=O)c(c5oc6cc(N7CC8CCCN(C(C)=O)C8C7)cc(O)c6nc-5c4c3C2=O)NC(=O)C(C)=CC=CC(C)C(O)C(C)C(O)C(C)C(OC(C)=O)C1C` [Compound 47, 3′-hydroxy-5′-[1-acetyl-(4aR,7aR)-octahydro-6H-pyrrolo[3,4-b]pyridin-6-yl]benzoxazinorifamycin]: the “MIC (μg/mL) S. aureus” value in experiment [1] stood at 0.008 µg/mL (≈ 8.27 nM). The “MIC (μg/mL) S. pneumo.” value in experiment [2] is 0.002 µg/mL (≈ 2.07 nM). The “MIC (μg/mL) E. faecalis” value in experiment [3] was 1 µg/mL (≈ 1030 nM). In experiment [4], the “MIC (μg/mL) H. flu” value was found to be 0.25 µg/mL (≈ 259 nM). In addition, the “MIC (μg/mL) E coli” value in experiment [5] was over 8 µg/mL.

Consider `COC1C=COC2(C)Oc3c(C)c(O)c4c(=O)c(c5oc6cc(N7CCC(NC(=O)OC(C)(C)C)CC7)cc(O)c6nc-5c4c3C2=O)NC(=O)C(C)=CC=CC(C)C(O)C(C)C(O)C(C)C(OC(C)=O)C1C` (stereo not drawn) [Compound 48], for which the “MIC (μg/mL) S. aureus” value in experiment [1] amounted to 0.008 µg/mL (≈ 8.01 nM). The “MIC (μg/mL) S. pneumo.” value in experiment [2] is 0.00025 µg/mL (≈ 0.25 nM). The “MIC (μg/mL) E. faecalis” value in experiment [3] came out at 2 µg/mL (≈ 2000 nM). The “MIC (μg/mL) H. flu” value in experiment [4] amounted to 1 µg/mL (≈ 1000 nM). Also, the “MIC (μg/mL) E coli” value in experiment [5] is over 8 µg/mL.

With `COC1C=COC2(C)Oc3c(C)c(O)c4c(=O)c(c5oc6cc(N7CCC(NC(=O)N8CCC(NC(=O)SC)CC8)CC7)cc(O)c6nc-5c4c3C2=O)NC(=O)C(C)=CC=CC(C)C(O)C(C)C(O)C(C)C(OC(C)=O)C1C` (stereo not drawn) [Compound 49, 3′-hydroxy-5′-[4-(4-(S-methylthiocarbamyl)-1-piperidinylcarbonyl)amino-1-piperidinyl]benzoxazinorifamycin], the “MIC (μg/mL) S. aureus” value in experiment [1] was 0.06 µg/mL (≈ 54.6 nM). The “MIC (μg/mL) S. pneumo.” value in experiment [2] came to 0.0005 µg/mL (≈ 0.455 nM). The “MIC (μg/mL) E. faecalis” value in experiment [3] stood at 8 µg/mL (≈ 7280 nM). Also, in experiment [4], the “MIC (μg/mL) H. flu” value turned out to be 2 µg/mL (≈ 1820 nM). Besides, the “MIC (μg/mL) E coli” value in experiment [5] was over 8 µg/mL.

With `COC1C=COC2(C)Oc3c(C)c(O)c4c(=O)c(c5oc6cc(N7CCC(NC(=O)N8CCN(C)CC8)CC7)cc(O)c6nc-5c4c3C2=O)NC(=O)C(C)=CC=CC(C)C(O)C(C)C(O)C(C)C(OC(C)=O)C1C` (stereo not drawn) [Compound 50, 3′-hydroxy-5′-[4-(4-methylpiperazinylcarbonyl)amino-1-piperidinyl]benzoxazinorifamycin], the “MIC (μg/mL) S. aureus” value in experiment [1] worked out at 0.03 µg/mL (≈ 29.3 nM). Besides, in experiment [2], the “MIC (μg/mL) S. pneumo.” value is 0.00012 µg/mL (≈ 0.117 nM). Moreover, the “MIC (μg/mL) E. faecalis” value in experiment [3] amounted to 4 µg/mL (≈ 3900 nM). In experiment [4], the “MIC (μg/mL) H. flu” value is 0.5 µg/mL (≈ 488 nM). In experiment [5], the “MIC (μg/mL) E coli” value was over 8 µg/mL.

Consider `CCOC(=O)NCC1CCN(c2cc(O)c3nc4c5c6c7c(C)c(O)c5c(=O)c(c-4oc3c2)NC(=O)C(C)=CC=CC(C)C(O)C(C)C(O)C(C)C(OC(C)=O)C(C)C(OC)C=COC(C)(O7)C6=O)CC1` (stereo not drawn) [Compound 51], for which the “MIC (μg/mL) S. aureus” value in experiment [1] stood at 0.06 µg/mL (≈ 60.9 nM). Further, the “MIC (μg/mL) S. pneumo.” value in experiment [2] was determined as 0.002 µg/mL (≈ 2.03 nM). Moreover, the “MIC (μg/mL) E. faecalis” value in experiment [3] came to 8 µg/mL (≈ 8120 nM). In addition, the “MIC (μg/mL) H. flu” value in experiment [4] was 0.25 µg/mL (≈ 254 nM). For the same molecule, the “MIC (μg/mL) E coli” value in experiment [5] came out at 8 µg/mL (≈ 8120 nM).

Take `COC1C=COC2(C)Oc3c(C)c(O)c4c(=O)c(c5oc6cc(N7CCC(NC(=O)OC(C)(C)C)CC7)cc(O)c6nc-5c4c3C2=O)NC(=O)C(C)=CC=CC(C)C(O)C(C)C(O)C(C)C(O)C1C` (stereo not drawn) [Compound 52, 25-O-deacetyl-3′-hydroxy-5′-[4-(2,2-dimethylethyl)carbamyl-1-piperidinyl]benzoxazinorifamycin]: the “MIC (μg/mL) S. aureus” value in experiment [1] was 0.015 µg/mL (≈ 15.7 nM). For the same molecule, the “MIC (μg/mL) S. pneumo.” value in experiment [2] was 0.00025 µg/mL (≈ 0.261 nM). In addition, the “MIC (μg/mL) E. faecalis” value in experiment [3] came to 4 µg/mL (≈ 4180 nM). For the same molecule, the “MIC (μg/mL) H. flu” value in experiment [4] was 0.12 µg/mL (≈ 125 nM). The “MIC (μg/mL) E coli” value in experiment [5] was over 8 µg/mL.

Consider `COC1C=COC2(C)Oc3c(C)c(O)c4c(=O)c(c5oc6cc(N7CC8C(C7)C8N(C)C)cc(O)c6nc-5c4c3C2=O)NC(=O)C(C)=CC=CC(C)C(O)C(C)C(O)C(C)C(OC(C)=O)C1C` [Compound 53, 3′-hydroxy-5′-[6-N,N-dimethylamino-(1R,5S)-3-azabicyclo[3.1.0]hex-3-yl]benzoxazinorifamycin], for which the “MIC (μg/mL) S. aureus” value in experiment [1] was 0.06 µg/mL (≈ 64.9 nM). The “MIC (μg/mL) S. pneumo.” value in experiment [2] is 0.008 µg/mL (≈ 8.65 nM). Moreover, in experiment [3], the “MIC (μg/mL) E. faecalis” value worked out at 4 µg/mL (≈ 4320 nM). Also, the “MIC (μg/mL) H. flu” value in experiment [4] amounted to 2 µg/mL (≈ 2160 nM). Moreover, in experiment [5], the “MIC (μg/mL) E coli” value is over 8 µg/mL.

On to `COC1C=COC2(C)Oc3c(C)c(O)c4c(=O)c(c5oc6cc(N7CC8C(C7)C8N(C)C)cc(O)c6nc-5c4c3C2=O)NC(=O)C(C)=CC=CC(C)C(O)C(C)C(O)C(C)C(O)C1C` [Compound 54, 3′-hydroxy-5′-[6-N,N-dimethylamino-(1R,5S)-3-azabicyclo[3.1.0]hex-3-yl]benzoxazinorifamycin], for which, in experiment [1], the “MIC (μg/mL) S. aureus” value came out at 0.008 µg/mL (≈ 9.06 nM). Besides, the “MIC (μg/mL) S. pneumo.” value in experiment [2] is 0.0005 µg/mL (≈ 0.566 nM). Besides, the “MIC (μg/mL) E. faecalis” value in experiment [3] came to 2 µg/mL (≈ 2260 nM). Moreover, the “MIC (μg/mL) H. flu” value in experiment [4] came out at 0.25 µg/mL (≈ 283 nM). For the same molecule, in experiment [5], the “MIC (μg/mL) E coli” value was over 8 µg/mL.

`COC1C=COC2(C)Oc3c(C)c(O)c4c(=O)c(c5oc6cc(N7CCC(CNC(C)=O)CC7)cc(O)c6nc-5c4c3C2=O)NC(=O)C(C)=CC=CC(C)C(O)C(C)C(O)C(C)C(OC(C)=O)C1C` (stereo not drawn) [Compound 55, 3′-hydroxy-5′-[4-acetylaminomethyl-1-piperidinyl]benzoxazinorifamycin]: in experiment [1], the “MIC (μg/mL) S. aureus” value was 0.008 µg/mL (≈ 8.38 nM). In addition, the “MIC (μg/mL) S. pneumo.” value in experiment [2] came out at 0.00025 µg/mL (≈ 0.262 nM). The “MIC (μg/mL) E. faecalis” value in experiment [3] worked out at 1 µg/mL (≈ 1050 nM). Besides, the “MIC (μg/mL) H. flu” value in experiment [4] is 0.5 µg/mL (≈ 524 nM). In experiment [5], the “MIC (μg/mL) E coli” value was found to be 8 µg/mL (≈ 8380 nM).

For the molecule `COC1C=COC2(C)Oc3c(C)c(O)c4c(=O)c(c5oc6cc(N7CCC(CNC(C)=O)CC7)cc(O)c6nc-5c4c3C2=O)NC(=O)C(C)=CC=CC(C)C(O)C(C)C(O)C(C)C(O)C1C` (stereo not drawn) [Compound 56, 25-O-deacetyl-3′-hydroxy-5′-[4-acetylaminomethyl-1-piperidinyl]benzoxazinorifamycin], the “MIC (μg/mL) S. aureus” value in experiment [1] was found to be 0.004 µg/mL (≈ 4.38 nM). Further, the “MIC (μg/mL) S. pneumo.” value in experiment [2] amounted to 0.001 µg/mL (≈ 1.1 nM). The “MIC (μg/mL) E. faecalis” value in experiment [3] came to 0.12 µg/mL (≈ 131 nM). Further, in experiment [4], the “MIC (μg/mL) H. flu” value amounted to 0.25 µg/mL (≈ 274 nM). Further, in experiment [5], the “MIC (μg/mL) E coli” value was found to be 8 µg/mL (≈ 8760 nM).
